Measured values: patent US20100267561A1, “HERBICIDAL PYRIDAZINONE DERIVATIVES” (priority 2007, published 2010)

Key:
Test in all cases: Test E pre-/postemergence plant response
Type in all cases: in vivo
[1] = system: Italian ryegrass (Lolium multiflorum); settings: scale 0 to 100
In short: (§1)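 Scores are visual estimates of control on a 0 to 100 scale, made against untreated plants 14 to 21 days after treatment in the greenhouse. Application was preemergence to sown seeds or postemergence to 2–18 cm plants (1- to 4-leaf stage), using a surfactant-containing non-phytotoxic solvent formulation.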

[2] = system: annual bluegrass (Poa annua); settings: scale 0 to 100
In short: as §1

[3] = system: broadleaf signalgrass (Brachiaria platyphylla); settings: scale 0 to 100
In short: as §1

[4] = system: common chickweed (Stellaria media); settings: Postemergence, scale 0 to 100
In short: as §1

[5] = system: dallisgrass (Paspalum dilatatum); settings: scale 0 to 100
In short: as §1

[6] = system: goosegrass (Eleusine indica); settings: scale 0 to 100
In short: as §1

[7] = system: green foxtail (Setaria viridis); settings: scale 0 to 100
In short: as §1

[8] = system: guineagrass (Panicum maximum); settings: scale 0 to 100
In short: as §1

[9] = system: itchgrass (Rottboellia cochinchinensis); settings: scale 0 to 100
In short: as §1

[10] = system: johnsongrass (Sorghum halepense); settings: scale 0 to 100
In short: as §1

[11] = system: large crabgrass (Digitaria sanguinalis); settings: scale 0 to 100
In short: as §1

[12] = system: naked crabgrass (Digitaria nuda); settings: scale 0 to 100
In short: as §1

[13] = system: purple nutsedge (Cyperus rotundus); settings: scale 0 to 100
In short: as §1

[14] = system: surinam grass (Brachiaria decumbens); settings: scale 0 to 100
In short: as §1

Cc1cc(-c2ccc(Cl)cc2)nn1-c1c(OS(C)(=O)=O)cnn(C)c1=O [Compound 36]
70: Plant response rating, Signalgrass ([3]; 16 g ai/ha, Preemergence) | Plant response rating, Crabgrass, Large ([11]; Postemergence, 16 g ai/ha)
90: Plant response rating, Signalgrass ([3]; Postemergence, 31 g ai/ha) | Plant response rating, Guineagrass ([8]; Postemergence, 31 g ai/ha) | Plant response rating, Guineagrass ([8]; Postemergence, 62 g ai/ha) | Plant response rating, Itchgrass ([9]; 62 g ai/ha, Preemergence) | Plant response rating, Crabgrass, Naked ([12]; 8 g ai/ha, Preemergence) | Plant response rating, Crabgrass, Naked ([12]; Postemergence, 31 g ai/ha)
0: Plant response rating, Ryegrass, Italian ([1]; Postemergence, 8 g ai/ha) | Plant response rating, Bluegrass ([2]; 8 g ai/ha, Preemergence) | Plant response rating, Bluegrass ([2]; 16 g ai/ha, Preemergence) | Plant response rating, Bluegrass ([2]; 31 g ai/ha, Preemergence) | Plant response rating, Bluegrass ([2]; 62 g ai/ha, Preemergence) | Plant response rating, Bluegrass ([2]; Postemergence, 8 g ai/ha) | Plant response rating, Bluegrass ([2]; Postemergence, 16 g ai/ha) | Plant response rating, Bluegrass ([2]; Postemergence, 31 g ai/ha) | Plant response rating, Bluegrass ([2]; Postemergence, 62 g ai/ha) | Plant response rating, Chickweed ([4]; 8 g ai/ha) | Plant response rating, Chickweed ([4]; 16 g ai/ha) | Plant response rating, Dallisgrass ([5]; Postemergence, 8 g ai/ha) | Plant response rating, Goosegrass ([6]; Postemergence, 8 g ai/ha) | Plant response rating, Itchgrass ([9]; Postemergence, 8 g ai/ha) | Plant response rating, Nutsedge, Purple ([13]; 16 g ai/ha, Preemergence) | Plant response rating, Nutsedge, Purple ([13]; 31 g ai/ha, Preemergence) | Plant response rating, Nutsedge, Purple ([13]; 62 g ai/ha, Preemergence) | Plant response rating, Nutsedge, Purple ([13]; Postemergence, 8 g ai/ha) | Plant response rating, Nutsedge, Purple ([13]; Postemergence, 16 g ai/ha) | Plant response rating, Nutsedge, Purple ([13]; Postemergence, 31 g ai/ha) | Plant response rating, Nutsedge, Purple ([13]; Postemergence, 62 g ai/ha)
50: Plant response rating, Signalgrass ([3]; Postemergence, 16 g ai/ha) | Plant response rating, Dallisgrass ([5]; Postemergence, 62 g ai/ha) | Plant response rating, Foxtail, Green ([7]; Postemergence, 16 g ai/ha) | Plant response rating, Itchgrass ([9]; Postemergence, 31 g ai/ha) | Plant response rating, Johnsongrass ([10]; Postemergence, 16 g ai/ha)
30: Plant response rating, Dallisgrass ([5]; Postemergence, 31 g ai/ha) | Plant response rating, Goosegrass ([6]; 8 g ai/ha, Preemergence)
20: Plant response rating, Dallisgrass ([5]; Postemergence, 16 g ai/ha)
95: Plant response rating, Foxtail, Green ([7]; 31 g ai/ha, Preemergence) | Plant response rating, Johnsongrass ([10]; 62 g ai/ha, Preemergence) | Plant response rating, Johnsongrass ([10]; Postemergence, 62 g ai/ha) | Plant response rating, Crabgrass, Large ([11]; 16 g ai/ha, Preemergence) | Plant response rating, Surinam Grass ([14]; 16 g ai/ha, Preemergence)
100: Plant response rating, Ryegrass, Italian ([1]; 16 g ai/ha, Preemergence) | Plant response rating, Ryegrass, Italian ([1]; 31 g ai/ha, Preemergence) | Plant response rating, Ryegrass, Italian ([1]; 62 g ai/ha, Preemergence) | Plant response rating, Signalgrass ([3]; 31 g ai/ha, Preemergence) | Plant response rating, Signalgrass ([3]; 62 g ai/ha, Preemergence) | Plant response rating, Signalgrass ([3]; Postemergence, 62 g ai/ha) | Plant response rating, Goosegrass ([6]; 62 g ai/ha, Preemergence) | Plant response rating, Foxtail, Green ([7]; 62 g ai/ha, Preemergence) | Plant response rating, Guineagrass ([8]; 16 g ai/ha, Preemergence) | Plant response rating, Guineagrass ([8]; 31 g ai/ha, Preemergence) | Plant response rating, Guineagrass ([8]; 62 g ai/ha, Preemergence) | Plant response rating, Crabgrass, Naked ([12]; 16 g ai/ha, Preemergence) | Plant response rating, Crabgrass, Naked ([12]; 31 g ai/ha, Preemergence) | Plant response rating, Crabgrass, Naked ([12]; 62 g ai/ha, Preemergence) | Plant response rating, Surinam Grass ([14]; 31 g ai/ha, Preemergence) | Plant response rating, Surinam Grass ([14]; 62 g ai/ha, Preemergence) | Plant response rating, Surinam Grass ([14]; Postemergence, 62 g ai/ha)
60: Plant response rating, Ryegrass, Italian ([1]; Postemergence, 31 g ai/ha) | Plant response rating, Dallisgrass ([5]; 16 g ai/ha, Preemergence) | Plant response rating, Foxtail, Green ([7]; 16 g ai/ha, Preemergence) | Plant response rating, Itchgrass ([9]; Postemergence, 62 g ai/ha) | Plant response rating, Crabgrass, Naked ([12]; Postemergence, 16 g ai/ha)
40: Plant response rating, Goosegrass ([6]; Postemergence, 31 g ai/ha) | Plant response rating, Itchgrass ([9]; Postemergence, 16 g ai/ha) | Plant response rating, Crabgrass, Naked ([12]; Postemergence, 8 g ai/ha)
80: Plant response rating, Ryegrass, Italian ([1]; Postemergence, 62 g ai/ha) | Plant response rating, Crabgrass, Large ([11]; Postemergence, 62 g ai/ha) | Plant response rating, Surinam Grass ([14]; Postemergence, 31 g ai/ha)
35: Plant response rating, Ryegrass, Italian ([1]; Postemergence, 16 g ai/ha) | Plant response rating, Dallisgrass ([5]; 8 g ai/ha, Preemergence) | Plant response rating, Goosegrass ([6]; Postemergence, 16 g ai/ha) | Plant response rating, Foxtail, Green ([7]; Postemergence, 8 g ai/ha) | Plant response rating, Guineagrass ([8]; Postemergence, 8 g ai/ha) | Plant response rating, Johnsongrass ([10]; Postemergence, 8 g ai/ha) | Plant response rating, Crabgrass, Large ([11]; 8 g ai/ha, Preemergence)
10: Plant response rating, Signalgrass ([3]; Postemergence, 8 g ai/ha)
85: Plant response rating, Johnsongrass ([10]; 31 g ai/ha, Preemergence)
15: Plant response rating, Foxtail, Green ([7]; 8 g ai/ha, Preemergence)
65: Plant response rating, Itchgrass ([9]; 16 g ai/ha, Preemergence) | Plant response rating, Crabgrass, Large ([11]; Postemergence, 8 g ai/ha) | Plant response rating, Surinam Grass ([14]; Postemergence, 8 g ai/ha) | Plant response rating, Surinam Grass ([14]; Postemergence, 16 g ai/ha)
98: Plant response rating, Dallisgrass ([5]; 62 g ai/ha, Preemergence) | Plant response rating, Goosegrass ([6]; 16 g ai/ha, Preemergence) | Plant response rating, Goosegrass ([6]; 31 g ai/ha, Preemergence) | Plant response rating, Crabgrass, Large ([11]; 31 g ai/ha, Preemergence) | Plant response rating, Crabgrass, Large ([11]; 62 g ai/ha, Preemergence) | Plant response rating, Crabgrass, Naked ([12]; Postemergence, 62 g ai/ha)
75: Plant response rating, Dallisgrass ([5]; 31 g ai/ha, Preemergence) | Plant response rating, Goosegrass ([6]; Postemergence, 62 g ai/ha) | Plant response rating, Foxtail, Green ([7]; Postemergence, 31 g ai/ha) | Plant response rating, Foxtail, Green ([7]; Postemergence, 62 g ai/ha) | Plant response rating, Guineagrass ([8]; Postemergence, 16 g ai/ha) | Plant response rating, Itchgrass ([9]; 31 g ai/ha, Preemergence) | Plant response rating, Johnsongrass ([10]; 16 g ai/ha, Preemergence) | Plant response rating, Johnsongrass ([10]; Postemergence, 31 g ai/ha) | Plant response rating, Crabgrass, Large ([11]; Postemergence, 31 g ai/ha)
